Measured values taken from US20150299188A1, “HETEROCYCLIC COMPOUND” (priority 2012, published 2015).

Tested on: FLAP (5-lipoxygenase activating protein)
Test: In vitro binding test: displacement of [3H]-7-chloro-3-(5-((3-fluoropyridin-2-yl)methoxy)-2-methylphenyl)-3,4-dihydroquinazolin-2(1H)-one from Sf9 microsome fractions
Parameters: species or system human and mouse
Details: Sf9 microsome fractions expressing FLAP; 100% = radioligand binding with 10 μM sodium 3-(3-(tert-butylsulfanyl)-1-(4-chlorobenzyl)-5-isopropyl-1H-indol-2-yl)-2,2-dimethylpropanoate, 0% = DMSO; test compound concentration not given
How it was run: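 Sf9 microsomes expressing human or mouse FLAP (2 μg/mL) preincubated with compound 10 min at room temperature, then 120 nM tritiated quinazolinone ligand added for 60 min; buffer 100 mM Tris-HCl pH 7.5 with NaCl, EDTA, DTT, glycerol, Tween20. Bound ligand filtered and counted by scintillation; 10 μM indole propanoate defines 100% inhibition, DMSO 0%.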

inhibitory rate (%)	SMILES
102%	O=C1Nc2cc(-c3ncco3)nc(C3CC3)c2CN1c1cc2c(cc1Cl)CCC(c1ncccc1F)O2 (stereo not shown) [Example 85, 3-(6-chloro-2-(3-fluoropyridin-2-yl)-3,4-dihydro-2H-chromen-7-yl)-5-cyclopropyl-7-(1,3-oxazol-2-yl)-3,4-dihydropyrido[4,3-d]pyrimidin-2(1H)-one]
98%	Cc1nc(C)c2c(c1Cl)CN(c1cc3c(cc1Cl)CCC(c1ncccc1F)O3)C(=O)N2 (stereo not shown) [Example 79, 5-chloro-3-(6-chloro-2-(3-fluoropyridin-2-yl)-3,4-dihydro-2H-chromen-7-yl)-6,8-dimethyl-3,4-dihydropyrido[3,4-d]pyrimidin-2(1H)-one]
113%	Cn1nccc1-c1nccc2c1CN(c1cc3c(cc1Cl)CCC(c1ncccc1F)O3)C(=O)N2 (stereo not shown) [Example 60, 3-(6-chloro-2-(3-fluoropyridin-2-yl)-3,4-dihydro-2H-chromen-7-yl)-5-(1-methyl-1H-pyrazol-5-yl)-3,4-dihydropyrido[4,3-d]pyrimidin-2(1H)-one]
104%	Cc1cc2c(cc1N1Cc3c(cc(-n4cc(C(N)=O)cn4)nc3C3CC3)NC1=O)OC(c1ncccc1F)CC2 (stereo not shown) [Example 135, 1-(5-cyclopropyl-3-(2-(3-fluoropyridin-2-yl)-6-methyl-3,4-dihydro-2H-chromen-7-yl)-2-oxo-1,2,3,4-tetrahydropyrido[4,3-d]pyrimidin-7-yl)-1H-pyrazole-4-carboxamide]
104%	Cc1cc2c(cc1N1Cc3c(ccnc3-c3ncco3)NC1=O)OC(c1ncccc1F)CC2 (stereo not shown) [Example 46, 3-(2-(3-fluoropyridin-2-yl)-6-methyl-3,4-dihydro-2H-chromen-7-yl)-5-(1,3-oxazol-2-yl)-3,4-dihydropyrido[4,3-d]pyrimidin-2(1H)-one]
89%	NC(=O)c1cc2c(c(C3CC3)n1)CN(c1cc3c(cc1Cl)CCC(c1ncccc1F)O3)C(=O)N2 (stereo not shown) [Example 95, 3-(6-chloro-2-(3-fluoropyridin-2-yl)-3,4-dihydro-2H-chromen-7-yl)-5-cyclopropyl-2-oxo-1,2,3,4-tetrahydropyrido[4,3-d]pyrimidine-7-carboxamide]
97%	Cc1cc2c(cc1N1Cc3ccc(C(=O)NC4CC4)cc3NC1=O)OC(c1ncccc1F)CC2 (stereo not shown) [Example 184, N-cyclopropyl-3-(2-(3-fluoropyridin-2-yl)-6-methyl-3,4-dihydro-2H-chromen-7-yl)-2-oxo-1,2,3,4-tetrahydroquinazoline-7-carboxamide]
105%	O=C1Nc2c(Cl)cnc(C3CC3)c2CN1c1cc2c(cc1Cl)CCC(c1ncccc1F)O2 (stereo not shown) [Example 65, 8-chloro-3-(6-chloro-2-(3-fluoropyridin-2-yl)-3,4-dihydro-2H-chromen-7-yl)-5-cyclopropyl-3,4-dihydropyrido[4,3-d]pyrimidin-2(1H)-one]
105%	O=C1Nc2cncc(C(F)(F)F)c2CN1c1cc2c(cc1Cl)CCC(c1ncccc1F)O2 (stereo not shown) [Example 78, 3-(6-chloro-2-(3-fluoropyridin-2-yl)-3,4-dihydro-2H-chromen-7-yl)-5-(trifluoromethyl)-3,4-dihydropyrido[3,4-d]pyrimidin-2(1H)-one]
118%	Cc1cc2c(cc1N1Cc3c(C(F)(F)F)ncc(Br)c3NC1=O)OC(c1ncccc1F)CC2 (stereo not shown) [Example 87, 8-bromo-3-(2-(3-fluoropyridin-2-yl)-6-methyl-3,4-dihydro-2H-chromen-7-yl)-5-(trifluoromethyl)-3,4-dihydropyrido[4,3-d]pyrimidin-2(1H)-one]
96%	O=C(NCCO)c1cc2c(c(C3CC3)n1)CN(c1cc3c(cc1Cl)CCC(c1ncccc1F)O3)C(=O)N2 (stereo not shown) [Example 101, 3-(6-chloro-2-(3-fluoropyridin-2-yl)-3,4-dihydro-2H-chromen-7-yl)-5-cyclopropyl-N-(2-hydroxyethyl)-2-oxo-1,2,3,4-tetrahydropyrido[4,3-d]pyrimidine-7-carboxamide]
114%	O=C1OCCN1c1cc2c(c(C3CC3)n1)CN(c1cc3c(cc1Cl)CCC(c1ncccc1F)O3)C(=O)N2 (stereo not shown) [Example 113, 3-(6-chloro-2-(3-fluoropyridin-2-yl)-3,4-dihydro-2H-chromen-7-yl)-5-cyclopropyl-7-(2-oxo-1,3-oxazolidin-3-yl)-3,4-dihydropyrido[4,3-d]pyrimidin-2(1H)-one]
108%	Cc1cc2c(cc1N1Cc3c(cc(Cl)nc3Cl)NC1=O)OC(c1ncccc1F)CC2 (stereo not shown) [Example 41, 5,7-dichloro-3-(2-(3-fluoropyridin-2-yl)-6-methyl-3,4-dihydro-2H-chromen-7-yl)-3,4-dihydropyrido[4,3-d]pyrimidin-2(1H)-one]
101%	Cn1cc(-c2ncc(Cl)c3c2NC(=O)N(c2cc4c(cc2Cl)CCC(c2ncccc2F)O4)C3)cn1 (stereo not shown) [Example 102, 5-chloro-3-(6-chloro-2-(3-fluoropyridin-2-yl)-3,4-dihydro-2H-chromen-7-yl)-8-(1-methyl-1H-pyrazol-4-yl)-3,4-dihydropyrido[3,4-d]pyrimidin-2(1H)-one]
115%	Cc1cc2c(cc1N1Cc3c(cc(C4CC4)nc3C3CC3)NC1=O)OC(c1ncccc1F)CC2 (stereo not shown) [Example 52, 5,7-dicyclopropyl-3-(2-(3-fluoropyridin-2-yl)-6-methyl-3,4-dihydro-2H-chromen-7-yl)-3,4-dihydropyrido[4,3-d]pyrimidin-2(1H)-one]
103%	Cc1ncc(Cl)c2c1NC(=O)N(c1cc3c(cc1Cl)CC[C@H](c1ncccc1F)O3)C2 [Example 8, 5-chloro-3-((2R)-6-chloro-2-(3-fluoropyridin-2-yl)-3,4-dihydro-2H-chromen-7-yl)-8-methyl-3,4-dihydropyrido[3,4-d]pyrimidin-2(1H)-one]
99%	Cc1cc2c(cc1N1Cc3c(cc(-n4cncn4)nc3C3CC3)NC1=O)OC(c1ncccc1F)CC2 (stereo not shown) [Example 140, 5-cyclopropyl-3-(2-(3-fluoropyridin-2-yl)-6-methyl-3,4-dihydro-2H-chromen-7-yl)-7-(1H-1,2,4-triazol-1-yl)-3,4-dihydropyrido[4,3-d]pyrimidin-2(1H)-one]

Second part, the compound before the results:

SMILES	inhibitory rate (%)
Cc1ccc(OCc2ncccc2F)cc1N1Cc2ncccc2NC1=O [Example 272, 3-(5-((3-fluoropyridin-2-yl)methoxy)-2-methylphenyl)-3,4-dihydropyrido[3,2-d]pyrimidin-2(1H)-one]	95%
Cc1ccc(OCc2ncccc2F)cc1N1Cc2c(Cl)cccc2NC1=O [Example 242, 5-chloro-3-(5-((3-fluoropyridin-2-yl)methoxy)-2-methylphenyl)-3,4-dihydroquinazolin-2(1H)-one]	102%
Cc1ccc(OCc2c(F)cccc2F)cc1N1Cc2ccncc2NC1=O [Example 240, 3-(5-((2,6-difluorobenzyl)oxy)-2-methylphenyl)-3,4-dihydropyrido[3,4-d]pyrimidin-2(1H)-one]	76%
O=C1Nc2cc(CO)ccc2CN1c1cc(OCc2c(F)cccc2F)ccc1CC1CCCCC1 [Example 290, 3-(2-(cyclohexylmethyl)-5-((2,6-difluorobenzyl)oxy)phenyl)-7-(hydroxymethyl)-3,4-dihydroquinazolin-2(1H)-one]	97%
COc1cccc2[nH]c(=O)n(-c3cc(OCc4ncccc4F)ccc3C)c(=O)c12 [Example 365, 3-(5-((3-fluoropyridin-2-yl)methoxy)-2-methylphenyl)-5-methoxyquinazoline-2,4(1H,3H)-dione]	94%
COC(=O)c1ccc2c(c1)NC(=O)N(c1cc(OCc3ncc(C)s3)ccc1C)C2 [Example 241, methyl 3-(2-methyl-5-((5-methyl-1,3-thiazol-2-yl)methoxy)phenyl)-2-oxo-1,2,3,4-tetrahydroquinazoline-7-carboxylate]	94%
Cc1ccc(OCc2ncccc2F)cc1-n1c(=O)[nH]c2cc([N+](=O)[O-])ccc2c1=O [Example 341, 3-(5-((3-fluoropyridin-2-yl)methoxy)-2-methylphenyl)-7-nitroquinazoline-2,4(1H,3H)-dione]	102%
O=C1Nc2cc(CO)ccc2CN1c1cc(OCc2c(F)cccc2F)ccc1CCc1ccccc1 [Example 257, 3-(5-((2,6-difluorobenzyl)oxy)-2-(2-phenylethyl)phenyl)-7-(hydroxymethyl)-3,4-dihydroquinazolin-2(1H)-one]	97%
O=C1Nc2ccccc2CN1c1cc(OCc2ncccc2F)ccc1CN1CCCC1 [Example 306, 3-(5-((3-fluoropyridin-2-yl)methoxy)-2-(pyrrolidin-1-ylmethyl)phenyl)-3,4-dihydroquinazolin-2(1H)-one]	74%
Cc1ccc(OCc2c(F)cccc2F)cc1N1Cc2ccc(C(=O)N3CCCC(O)C3)cc2NC1=O (stereo not shown) [Example 205, 3-(5-((2,6-difluorobenzyl)oxy)-2-methylphenyl)-7-((3-hydroxypiperidin-1-yl)carbonyl)-3,4-dihydroquinazolin-2(1H)-one]	77%
CCCc1ccc(OCc2ncccc2F)cc1N1Cc2ccccc2NC1=O [Example 245, 3-(5-((3-fluoropyridin-2-yl)methoxy)-2-propylphenyl)-3,4-dihydroquinazolin-2(1H)-one]	99%
CCc1ccc(OCc2c(F)cccc2F)cc1N1Cc2ccc(CO)cc2NC1=O [Example 179, 3-(5-((2,6-difluorobenzyl)oxy)-2-ethylphenyl)-7-(hydroxymethyl)-3,4-dihydroquinazolin-2(1H)-one]	91%
Cc1ccc(OCc2ncc(F)cc2F)cc1N1Cc2ccccc2NC1=O [Example 247, 3-(5-((3,5-difluoropyridin-2-yl)methoxy)-2-methylphenyl)-3,4-dihydroquinazolin-2(1H)-one]	99%
O=c1[nH]c2ccccc2c(=O)n1-c1cccc(OCc2ncccc2F)c1 [Example 346, 3-(3-((3-fluoropyridin-2-yl)methoxy)phenyl)quinazoline-2,4(1H,3H)-dione]	96%
